Data as given in patent US20210323929A1, “Purified Detomidine, Process of Preparing and Methods of Use” (Clexio Biosciences Ltd., priority 2018, published 2021).
Where two headings read alike, the source gives them in different places.

Legend:
Type in all cases: physicochemical
[1] = Hydration study by DVS analysis (hydration-dehydration cycles versus relative humidity)
Experimental: Melting points (m.p.) of the intermediate detomidine free base and hydrochloride of Sample 5 measured in open capillary corresponded with the published literature and the DSC data and are presented in Table 5. In order to evaluate effect of humidity on different forms of detomidine, a hydration study was performed. Samples of detomidine free base and hydrochloride salt were subjected to DVS analysis. These observations are in accordance with the DVS results shown in FIGS. 5 and 6, for detomidine free base and detomidine HCl, respectively.
During the dehydration cycle, the monohydrate began to lose water at RH˜10% and converted into the anhydrate at RH=0%.
At the same time, the anhydrous form is not stable in atmospheric air and absorbs water at RH=30-50%.

[2] = Solubility in water (observation on the solid forms)
[3] = Solid form stability of the vacuum dried anhydrate, hermetically closed or exposed to atmospheric air
Experimental: The same monohydrate dried at elevated temperature (30-40 mbar 90° C.) converted completely into the anhydrous form.

[4] = Re-slurry in water: conversion of the solid form without complete dissolution; details: contact with water for 24 hrs, re-slurry at 24° C.

Cc1cccc(Cc2c[nH]cn2)c1C [detomidine free base, 4-[(2,3-dimethylphenyl)methyl]-1H-imidazole]
hygroscopicity ([1]; DVS, 24.4° C. (FIG. 5)): non-hygroscopic | water absorbed ([1]; at relative humidity (RH)>50%): more than 1% | solubility in water [2]: insoluble in water

Cc1cccc(Cc2c[nH]cn2)c1C [anhydrous form]
stability in atmospheric air ([1]; atmospheric air): not stable | RH at which the anhydrate absorbs water / transforms completely into the monohydrate ([1]; hydration cycle): 30-50% | RH at which the anhydrate did not absorb water ([1]; hydration cycle): < 30% | water uptake and form conversion after exposure to atmospheric air ([3]; after exposure to atmospheric air): absorbed water and converted to a mixture of anhydrate and monohydrate | water uptake and form conversion, hermetically closed ([3]; vacuum dried, hermetically closed): did not absorb water from the atmosphere and did not convert into the monohydrate | form conversion on contact with water [4]: completely converted

Cc1cccc(Cc2c[nH]cn2)c1C [Sample 2]
water level after absorption, cKF ([1]; anhydrous detomidine HCl after hydration): 7.7%

Cc1cccc(Cc2c[nH]cn2)c1C.Cl [detomidine hydrochloride]
reproducibility of anhydrate-monohydrate interconversion ([1]; four cycles of hydration-dehydration): good reproducibility | solubility in water ([2]; water, hydrochloride formed with aqueous HCl): soluble

Cc1cccc(Cc2c[nH]cn2)c1C [monohydrate]
absorption of additional water on increase of humidity ([1]; RH 70% to RH>90%): did not lead to absorption of additional water | RH at which the monohydrate began to lose water ([1]; dehydration cycle): ~10% | RH at which the monohydrate converted into the anhydrate ([1]; dehydration cycle): 0%
